# Laboratory results as given in PMC10762035, “Molecular basis of human trace amine-associated receptor 1 activation” (Nature Communications, 2024).
# Numbering of substitutions follows the chain as printed. “And” between values parts separate entries of the source, which are not always exact repeats. Equal entries are not always repeated. Where two headings read alike, the source gives them in different places.
# Experiments:
# Type in all cases: cell-based
# hTA1 S107C = molecular target: T1, hTA1 S107C (Homo sapiens, UniProt Q96RJ0, S107C); experiment: GloSensor cAMP accumulation assay, S107C mutant; conditions: for ΔEmax values (each mutant value - WT average): S107C mutant minus WT average; for Emax values, Mean: β-PEA = 100;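 on all read-outs here: cells transiently co-expressing receptor and GloSensor biosensor, luminescence read after 30 min agonist exposure at room temperature, concentration-response fitted by nonlinear regression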
# T1 construct: expressed in transfected cells; host or cells: HEK293T
# T1 sequence (Q96RJ0 1-339 S107C): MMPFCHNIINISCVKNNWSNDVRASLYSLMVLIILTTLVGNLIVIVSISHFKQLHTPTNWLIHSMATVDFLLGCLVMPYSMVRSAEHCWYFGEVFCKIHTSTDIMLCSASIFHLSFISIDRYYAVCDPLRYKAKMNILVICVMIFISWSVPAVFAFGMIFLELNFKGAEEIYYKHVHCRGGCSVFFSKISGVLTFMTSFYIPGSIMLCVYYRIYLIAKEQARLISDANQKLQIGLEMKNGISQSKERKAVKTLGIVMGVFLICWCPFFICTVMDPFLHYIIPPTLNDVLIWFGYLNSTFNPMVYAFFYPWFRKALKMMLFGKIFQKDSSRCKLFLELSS
# hTA1 I290N = molecular target: T2, hTA1 I290N (Homo sapiens, UniProt Q96RJ0, I290N); experiment: GloSensor cAMP accumulation assay, I290N mutant; conditions: for cAMP accumulation response, single replicate values (source data, Supplementary Figure 5): hTA1 I290N (N=2), log[Compound], M = -5; for ΔpEC50 values (each mutant value - WT average), Mean: hTA1 I290N mutant minus WT average;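 on all read-outs here: cells transiently co-expressing hTA1 and the GloSensor cAMP biosensor, luminescence read 30 min after compound addition at room temperature, efficacy scaled to the maximal β-PEA response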
# T2 construct: expressed in transfected cells; host or cells: HEK293T
# T2 sequence (Q96RJ0 1-339 I290N): T1 sequence (Q96RJ0 1-339 S107C) with C107S, I290N
# hTA1 C5S = molecular target: T3, hTA1 C5S (Homo sapiens, UniProt Q96RJ0, C5S); experiment: GloSensor cAMP accumulation assay, C5S mutant; conditions: for C5S - Normalized Luminescence Counts (N=2): log[Compound], single wells
# T3 construct: expressed in transfected cells; host or cells: HEK293T
# T3 sequence (Q96RJ0 1-339 C5S): T1 sequence (Q96RJ0 1-339 S107C) with C5S, C107S
# hTA1 C13S = molecular target: T4, hTA1 C13S (Homo sapiens, UniProt Q96RJ0, C13S); experiment: GloSensor cAMP accumulation assay, C13S mutant; conditions: for C13S - Normalized Luminescence Counts (N=2): log[Compound], single wells
# T4 construct: expressed in transfected cells; host or cells: HEK293T
# T4 sequence (Q96RJ0 1-339 C13S): T1 sequence (Q96RJ0 1-339 S107C) with C13S, C107S
# [1] = S107C mutant, each line an independent experiment, 3 replicates
# [2] = hTA1 I290N mutant, β-PEA set to 100, each grid row a separate experiment, 3 replicates
# [3] = hTA1 C5S, β-PEA = 100, mean of 3 replicates, one line per independent experiment
# [4] = C13S, Mean of fit per experiment
Structure (SMILES),decrease in potency vs wild type (hTA1 S107C; S107C),ΔEmax values (each mutant value - WT average) (hTA1 S107C),"Emax values, Mean (hTA1 S107C; [1])","cAMP accumulation response, single replicate values (source data, Supplementary Figure 5) (hTA1 I290N)","ΔpEC50 values (each mutant value - WT average), Mean (hTA1 I290N)","Emax values, Mean (hTA1 I290N; [2])","Emax values, Mean (hTA1 C5S; [3])",C5S - Normalized Luminescence Counts (N=2) (hTA1 C5S; M = -5),C5S - Normalized Luminescence Counts (N=2) (hTA1 C5S; M = -5.522),C5S - Normalized Luminescence Counts (N=2) (hTA1 C5S; M = -6),C5S - Normalized Luminescence Counts (N=2) (hTA1 C5S; M = -6.522),C5S - Normalized Luminescence Counts (N=2) (hTA1 C5S; M = -7),C5S - Normalized Luminescence Counts (N=2) (hTA1 C5S; M = -7.522),C5S - Normalized Luminescence Counts (N=2) (hTA1 C5S; M = -8),C5S - Normalized Luminescence Counts (N=2) (hTA1 C5S; M = -9),Emax values (hTA1 C13S; [4]),C13S - Normalized Luminescence Counts (N=2) (hTA1 C13S; M = -5),C13S - Normalized Luminescence Counts (N=2) (hTA1 C13S; M = -5.522),C13S - Normalized Luminescence Counts (N=2) (hTA1 C13S; M = -6),C13S - Normalized Luminescence Counts (N=2) (hTA1 C13S; M = -6.522),further results
CCC(CC1COC(N)=N1)c1ccccc1 (stereo not drawn) [Ro5256390],approximately 100 fold,-34.2322,69.072 and 124.486,109.556 and 109.922 and 109.294 and 105.343,-0.14 and 0.00774,96.7119,93.1178,103.833 and 96.8115 and 93.515 and 109.052 and 73.4937 and 115.059,100.921 and 96.3599 and 95.6826 and 93.2407 and 55.8872 and 98.4881,105.12 and 94.0343 and 79.8326 and 75.5651 and 84.541 and 101.802,95.389 and 104.217 and 100.289 and 100.214 and 115.957 and 88.6146,82.6549 and 83.4903 and 89.3381 and 93.6549 and 93.9311 and 89.0289,62.4022 and 62.4925 and 74.2106 and 83.9196 and 70.5248 and 74.2532,36.7307 and 40.4787 and 36.4823 and 59.3395 and 54.6444 and 53.6087,8.372 and 7.4241 and 6.656 and 9.834 and 7.901 and 11.353,104.119,108.406 and 95.388 and 120.776 and 112.887 and 109.603 and 114.083,112.25 and 104.067 and 102.43 and 107.496 and 95.9649 and 109.96,90.5159 and 87.1282 and 84.9205 and 101.909 and 92.8231 and 104.73,96.2254 and 77.4601 and 94.8551 and 102.052 and 85.8613 and 107.282,"EC50 (hTA1 S107C; EC50, S107C, n=2): 504 nM; Emax (hTA1 S107C; read-out: Span ± SEM (Emax normalized to β-PEA), S107C, n=2): 88.8 ± 19.8%; EC50 (hTA1 I290N; EC50, I290N, n=2): 6.21 nM; EC50 (hTA1 I290N; pEC50 values (Mean), hTA1 I290N mutant, Figure 3B source data, each grid row a separate experiment, 3 replicates): 7.37 nM and 5.24 nM; Emax (hTA1 I290N; read-out: Emax values (Mean), hTA1 I290N mutant, β-PEA set to 100, each grid row a separate experiment, 3 replicates): 101%; Emax (hTA1 I290N; read-out: Span ± SEM (Emax normalized to β-PEA), I290N, n=2): 99 ± 2.27%; EC50 (hTA1 C5S; EC50, C5S, n=2): 9.93 nM; EC50 (hTA1 C5S; pEC50 values, Mean, hTA1 C5S, mean of 3 replicates, one line per independent experiment): 15.2 nM and 6.48 nM; EC50 (hTA1 C5S; pEC50 ± SEM, C5S, n=2): 10 nM; Emax (hTA1 C5S; read-out: Emax values, Mean, hTA1 C5S, β-PEA = 100, mean of 3 replicates, one line per independent experiment): 97.6%; Emax (hTA1 C5S; read-out: Span ± SEM (Emax normalized to β-PEA), C5S, n=2): 95.4 ± 2.26%; ΔpEC50 values (each mutant value - WT average) (hTA1 C13S; C13S): -0.1093 and -0.3651; EC50 (hTA1 C13S; EC50, C13S, n=2): 9.21 nM; EC50 (hTA1 C13S; pEC50 values, Mean, hTA1 C13S, mean of 3 replicates, one line per independent experiment): 6.86 nM and 12.4 nM; Emax (hTA1 C13S; read-out: Emax values, C13S, Mean of fit per experiment): 96.6%; Emax (hTA1 C13S; read-out: Span ± SEM (Emax normalized to β-PEA), C13S, n=2): 100 ± 3.73%"
Cc1c(F)cccc1[C@H]1COC(N)=N1 [Ro5263397],approximately 100 fold,21.9095,108.613 and 99.8921,101.804 and 110.08 and 95.4137 and 103.531,-0.535 and -0.459,85.3822 and 81.9937,87.6591 and 83.3363,85.0708 and 100.74 and 87.5995 and 113.126 and 96.6929 and 89.5813,97.1276 and 85.703 and 92.1378 and 95.6573 and 94.8978 and 70.801,93.0635 and 85.8836 and 79.9907 and 67.4868 and 91.9288 and 67.763,88.5027 and 85.5675 and 89.6542 and 93.5169 and 82.6077 and 78.2579,87.2609 and 83.7612 and 87.2157 and 111.607 and 73.6318 and 82.4696,71.4335 and 67.6629 and 81.3002 and 85.1624 and 76.2555 and 81.6411,61.928 and 52.9645 and 61.8152 and 50.2945 and 70.0415 and 59.7537,23.0031 and 19.2551 and 16.9296 and 21.986 and 33.2404 and 18.948,73.5469 and 88.9072,76.1278 and 93.1423 and 84.8444 and 95.4829 and 105.462 and 103.819,68.8196 and 89.374 and 78.4497 and 85.6471 and 106.265 and 88.9317,64.1759 and 93.599 and 66.6881 and 75.8649 and 92.3769 and 86.7896,56.487 and 80.4671 and 60.7882 and 74.8831 and 89.3601 and 80.042,"pEC50 values, Mean (hTA1 S107C; [1]): 7.847 and 7.402; Span ± SEM (Emax normalized to β-PEA) (hTA1 S107C; S107C, n=2): 112.19; pEC50 ± SEM (hTA1 S107C; S107C, n=2): 6.61 ± 0.80; EC50 (hTA1 S107C; S107C, n=2, read-out: EC50): 248 nM; Span ± SEM (Emax normalized to β-PEA) (hTA1 I290N; I290N, n=2): 83.69 ± 1.69; pEC50 ± SEM (hTA1 I290N; I290N, n=2): 8.33 ± 0.07; EC50 (hTA1 I290N; I290N, n=2, read-out: EC50): 4.63 nM; pEC50 values, Mean (hTA1 I290N; hTA1 I290N mutant, Figure 3B source data, each grid row a separate experiment, 3 replicates): 8.296 and 8.372; Span ± SEM (Emax normalized to β-PEA) (hTA1 C5S; C5S, n=2): 85.5 ± 2.16; pEC50 ± SEM (hTA1 C5S; C5S, n=2): 8.41 ± 0.07; EC50 (hTA1 C5S; C5S, n=2, read-out: EC50): 3.89 nM; ΔpEC50 values (each mutant value - WT average), Mean (hTA1 C5S; hTA1 C5S minus WT average): -0.4275 and -0.4158; pEC50 values, Mean (hTA1 C5S; hTA1 C5S, mean of 3 replicates, one line per independent experiment): 8.404 and 8.415; C5S - Normalized Luminescence Counts (N=2) (hTA1 C5S; M = -8.522): 48.2456 and 39.1466 and 43.2332 and 39.9378 and 36.8998 and 46.1518; C5S - Normalized Luminescence Counts (N=2) (hTA1 C5S; M = -9.522): 10.2012 and 7.989 and 6.476 and 12.3887 and 12.803 and 8.1079; Span ± SEM (Emax normalized to β-PEA) (hTA1 C13S; C13S, n=2): 81.23 ± 7.68; pEC50 ± SEM (hTA1 C13S; C13S, n=2): 8.6 ± 0.08; EC50 (hTA1 C13S; C13S, n=2, read-out: EC50): 2.48 nM; pEC50 values, Mean (hTA1 C13S; hTA1 C13S, mean of 3 replicates, one line per independent experiment): 8.7547 and 8.4539"
